Source: patent publication US20230085307A1, “PYRIDAZINONE COMPOUND AND HERBICIDE” (NISSAN CHEMICAL CORPORATION, priority 2019, published 2023)

What was measured:
barnyard grass [1] = test: Test Example 3: herbicidal effect by foliage application, Wagner pot (Table 18, symbol H); assay type: in vivo, barnyard grass (Echinochloa crus-galli); conditions: 320 g/ha
Summary of the method: (§1)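 Plants were sown in alluvial soil held under 0.1–0.5 cm standing water and grown 14 days in a greenhouse at 25–30 °C. An emulsifiable formulation, water-diluted to the set dose, was then sprayed onto the foliage, and effects were scored three weeks later using previously defined criteria.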

Chinese sprangletop = test: Test Example 3: herbicidal effect by foliage application, Wagner pot (Table 18, symbol D); assay type: in vivo, chinese sprangletop (Leptochloa chinensis); conditions: 320 g/ha
Summary of the method: as §1

rice flat sedge = test: Test Example 3: herbicidal effect by foliage application, Wagner pot (Table 18, symbol E); assay type: in vivo, rice flat sedge (Cyperus iria); conditions: 320 g/ha
Summary of the method: as §1

directly sowed rice = test: Test Example 3: effect on crop by foliage application, Wagner pot (Table 18, symbol b); assay type: in vivo; conditions: 320 g/ha
Summary of the method: as §1

southern crabgrass [2] = test: Test Example 4: herbicidal effect by soil treatment (Table 19, symbol F); assay type: in vivo, southern crabgrass (Digitaria ciliaris); conditions: amount of applied herbicide 320 g/ha
Summary of the method: (§2)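 Herbicidal effect was rated 3 weeks after treatment, using the scoring criteria of an earlier test. The compound, formulated as an emulsion and diluted in water to a set herbicide amount, had been sprayed uniformly on soil over freshly sown seeds. Growth took place in a greenhouse at 25° C. to 30° C.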

green foxtail [3] = test: Test Example 4: herbicidal effect by soil treatment (Table 19, symbol G); assay type: in vivo, green foxtail (Setaria viridis); conditions: amount of applied herbicide 320 g/ha
Summary of the method: as §2

barnyard grass [4] = test: Test Example 4: herbicidal effect by soil treatment (Table 19, symbol H); assay type: in vivo, barnyard grass (Echinochloa crus-galli); conditions: amount of applied herbicide 320 g/ha
Summary of the method: as §2

wild oat [5] = test: Test Example 4: herbicidal effect by soil treatment (Table 19, symbol I); assay type: in vivo, wild oat (Avena fatua); conditions: amount of applied herbicide 320 g/ha
Summary of the method: as §2

blackgrass [6] = test: Test Example 4: herbicidal effect by soil treatment (Table 19, symbol J); assay type: in vivo, blackgrass (Alopecurus myosuroides); conditions: amount of applied herbicide 320 g/ha
Summary of the method: as §2

Italian ryegrass [7] = test: Test Example 4: herbicidal effect by soil treatment (Table 19, symbol K); assay type: in vivo, Italian ryegrass (Lolium multiflorum); conditions: amount of applied herbicide 320 g/ha
Summary of the method: as §2

windgrass [8] = test: Test Example 4: herbicidal effect by soil treatment (Table 19, symbol L); assay type: in vivo, windgrass (Apera spica-venti); conditions: amount of applied herbicide 320 g/ha
Summary of the method: as §2

velvetleaf [9] = test: Test Example 4: herbicidal effect by soil treatment (Table 19, symbol M); assay type: in vivo, velvetleaf (Abutilon theophrasti); conditions: amount of applied herbicide 320 g/ha
Summary of the method: as §2

redroot pigweed [10] = test: Test Example 4: herbicidal effect by soil treatment (Table 19, symbol N); assay type: in vivo, redroot pigweed (Amaranthus retroflexus); conditions: amount of applied herbicide 320 g/ha
Summary of the method: as §2

lambsquarters [11] = test: Test Example 4: herbicidal effect by soil treatment (Table 19, symbol O); assay type: in vivo, lambsquarters (Chenopodium album); conditions: amount of applied herbicide 320 g/ha
Summary of the method: as §2

chickweed [12] = test: Test Example 4: herbicidal effect by soil treatment (Table 19, symbol P); assay type: in vivo, common chickweed (Stellaria media); conditions: amount of applied herbicide 320 g/ha
Summary of the method: as §2

persian speedwell [13] = test: Test Example 4: herbicidal effect by soil treatment (Table 19, symbol R); assay type: in vivo, Persian speedwell (Veronica persica); conditions: amount of applied herbicide 320 g/ha
Summary of the method: as §2

corn [14] = test: Test Example 4: effect on crop by soil treatment (Table 19, symbol c); assay type: in vivo; conditions: amount of applied herbicide 320 g/ha
Summary of the method: as §2

soybean [15] = test: Test Example 4: effect on crop by soil treatment (Table 19, symbol d); assay type: in vivo; conditions: amount of applied herbicide 320 g/ha
Summary of the method: as §2

wheat [16] = test: Test Example 4: effect on crop by soil treatment (Table 19, symbol e); assay type: in vivo; conditions: amount of applied herbicide 320 g/ha
Summary of the method: as §2

beet [17] = test: Test Example 4: effect on crop by soil treatment (Table 19, symbol f); assay type: in vivo; conditions: amount of applied herbicide 320 g/ha
Summary of the method: as §2

rapeseed [18] = test: Test Example 4: effect on crop by soil treatment (Table 19, symbol g); assay type: in vivo; conditions: amount of applied herbicide 320 g/ha
Summary of the method: as §2

southern crabgrass [19] = test: Test Example 5: herbicidal effect by foliage application, plastic box (Table 20, symbol F); assay type: in vivo, southern crabgrass (Digitaria ciliaris); conditions: foliage application, 320 g/ha, three weeks after application
Summary of the method: (§3)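 Foliar spray test: emulsion formulation diluted in water to a set application rate, sprayed onto 14-day-old plants raised in diluvial soil at 25° C to 30° C under glass. Both herbicidal effect and crop effect rated visually three weeks later.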

green foxtail [20] = test: Test Example 5: herbicidal effect by foliage application, plastic box (Table 20, symbol G); assay type: in vivo, green foxtail (Setaria viridis); conditions: foliage application, 320 g/ha, three weeks after application
Summary of the method: as §3

barnyard grass [21] = test: Test Example 5: herbicidal effect by foliage application, plastic box (Table 20, symbol H); assay type: in vivo, barnyard grass (Echinochloa crus-galli); conditions: foliage application, 320 g/ha, three weeks after application
Summary of the method: as §3

wild oat [22] = test: Test Example 5: herbicidal effect by foliage application, plastic box (Table 20, symbol I); assay type: in vivo, wild oat (Avena fatua); conditions: foliage application, 320 g/ha, three weeks after application
Summary of the method: as §3

blackgrass [23] = test: Test Example 5: herbicidal effect by foliage application, plastic box (Table 20, symbol J); assay type: in vivo, blackgrass (Alopecurus myosuroides); conditions: foliage application, 320 g/ha, three weeks after application
Summary of the method: as §3

Italian ryegrass [24] = test: Test Example 5: herbicidal effect by foliage application, plastic box (Table 20, symbol K); assay type: in vivo, Italian ryegrass (Lolium multiflorum); conditions: foliage application, 320 g/ha, three weeks after application
Summary of the method: as §3

windgrass [25] = test: Test Example 5: herbicidal effect by foliage application, plastic box (Table 20, symbol L); assay type: in vivo, windgrass (Apera spica-venti); conditions: foliage application, 320 g/ha, three weeks after application
Summary of the method: as §3

velvetleaf [26] = test: Test Example 5: herbicidal effect by foliage application, plastic box (Table 20, symbol M); assay type: in vivo, velvetleaf (Abutilon theophrasti); conditions: foliage application, 320 g/ha, three weeks after application
Summary of the method: as §3

redroot pigweed [27] = test: Test Example 5: herbicidal effect by foliage application, plastic box (Table 20, symbol N); assay type: in vivo, redroot pigweed (Amaranthus retroflexus); conditions: foliage application, 320 g/ha, three weeks after application
Summary of the method: as §3

lambsquarters [28] = test: Test Example 5: herbicidal effect by foliage application, plastic box (Table 20, symbol O); assay type: in vivo, lambsquarters (Chenopodium album); conditions: foliage application, 320 g/ha, three weeks after application
Summary of the method: as §3

chickweed [29] = test: Test Example 5: herbicidal effect by foliage application, plastic box (Table 20, symbol P); assay type: in vivo, common chickweed (Stellaria media); conditions: foliage application, 320 g/ha, three weeks after application
Summary of the method: as §3

persian speedwell [30] = test: Test Example 5: herbicidal effect by foliage application, plastic box (Table 20, symbol R); assay type: in vivo, Persian speedwell (Veronica persica); conditions: foliage application, 320 g/ha, three weeks after application
Summary of the method: as §3

corn [31] = test: Test Example 5: effect on crop by foliage application, plastic box (Table 20, symbol c); assay type: in vivo; conditions: 320 g/ha, three weeks after application
Summary of the method: as §3

soybean [32] = test: Test Example 5: effect on crop by foliage application, plastic box (Table 20, symbol d); assay type: in vivo; conditions: 320 g/ha, three weeks after application
Source text: (§4) [Test Example 5] Herbicidal Effect Test by Foliage Application
(§5) Sterilized diluvial soil was placed in a plastic box having a length of 21 cm, a width of 13 cm, and a depth of 7 cm. The seeds of each of southern crabgrass, green foxtail, barnyard grass, wild oat, blackgrass, Italian ryegrass, windgrass, velvetleaf, redroot pigweed, lambsquarters, chickweed, false cleavers, persian speedwell, corn, soybean, rice, wheat, beet, and rapeseed were sowed in a spot-like manner and covered with the soil having a thickness of about 1.5 cm. Thereafter, the plants were grown in a greenhouse at 25° C. to 30° C. After 14-day growth of the plants, the emulsion agent of the compound of the present invention prepared according to Formulation Example 2 was diluted with water so as to achieve a predetermined herbicide amount, and the diluted emulsion agent was uniformly applied to a foliage part with a small-sized spray. Three weeks after the herbicide application, the effect of the herbicide on each plant was evaluated according to the criteria of Test Example 1.

wheat [33] = test: Test Example 5: effect on crop by foliage application, plastic box (Table 20, symbol e); assay type: in vivo; conditions: 320 g/ha, three weeks after application
Summary of the method: as §3

beet [34] = test: Test Example 5: effect on crop by foliage application, plastic box (Table 20, symbol f); assay type: in vivo; conditions: 320 g/ha, three weeks after application
Source text: as §4, §5

rapeseed [35] = test: Test Example 5: effect on crop by foliage application, plastic box (Table 20, symbol g); assay type: in vivo; conditions: 320 g/ha, three weeks after application
Source text: as §4, §5

## COc1ccc2c(-c3c(O)c(N)nn(C)c3=O)c(-c3ccccc3OC)sc2c1 [Compound No. 3-087, 6-amino-5-hydroxy-4-(6-methoxy-2-(2-methoxyphenyl)benzo[b]thiophen-3-yl)-2-methyl pyridazin-3(2H)-one]
Barnyard grass [1]
  herbicidal effect on barnyard grass (H): 4 (Herbicidal rate of 70% or more and less than 90%)
Chinese sprangletop
  herbicidal effect on Chinese sprangletop (D): 0 (Herbicidal rate of 5% or less (almost no effect))
Rice flat sedge
  herbicidal effect on rice flat sedge (E): 3 (Herbicidal rate of 40% or more and less than 70%)
Directly sowed rice
  effect on directly sowed rice (b): 1 (Herbicidal rate of 5% or more and less than 20%)
Southern crabgrass [2]
  F: southern crabgrass, herbicidal effect grade: 0 (Herbicidal rate of 5% or less (almost no effect))
Green foxtail [3]
  G: green foxtail, herbicidal effect grade: 0 (Herbicidal rate of 5% or less (almost no effect))
Barnyard grass [4]
  H: barnyard grass, herbicidal effect grade: 0 (Herbicidal rate of 5% or less (almost no effect))
Wild oat [5]
  I: wild oat, herbicidal effect grade: 0 (Herbicidal rate of 5% or less (almost no effect))
Blackgrass [6]
  J: blackgrass, herbicidal effect grade: 0 (Herbicidal rate of 5% or less (almost no effect))
Italian ryegrass [7]
  K: Italian ryegrass, herbicidal effect grade: 0 (Herbicidal rate of 5% or less (almost no effect))
Windgrass [8]
  L: windgrass, herbicidal effect grade: 0 (Herbicidal rate of 5% or less (almost no effect))
Velvetleaf [9]
  M: velvetleaf, herbicidal effect grade: 0 (Herbicidal rate of 5% or less (almost no effect))
Redroot pigweed [10]
  N: redroot pigweed, herbicidal effect grade: 0 (Herbicidal rate of 5% or less (almost no effect))
Lambsquarters [11]
  O: lambsquarters, herbicidal effect grade: 0 (Herbicidal rate of 5% or less (almost no effect))
Chickweed [12]
  P: chickweed, herbicidal effect grade: 3 (Herbicidal rate of 40% or more and less than 70%)
Persian speedwell [13]
  R: persian speedwell, herbicidal effect grade: 3 (Herbicidal rate of 40% or more and less than 70%)
Corn [14]
  c: corn, effect on crop grade: 0 (Herbicidal rate of 5% or less (almost no effect))
Soybean [15]
  d: soybean, effect on crop grade: 0 (Herbicidal rate of 5% or less (almost no effect))
Wheat [16]
  e: wheat, effect on crop grade: 0 (Herbicidal rate of 5% or less (almost no effect))
Beet [17]
  f: beet, effect on crop grade: 0 (Herbicidal rate of 5% or less (almost no effect))
Rapeseed [18]
  g: rapeseed, effect on crop grade: 0 (Herbicidal rate of 5% or less (almost no effect))
Southern crabgrass [19]
  F: southern crabgrass, herbicidal effect grade: 0 (Herbicidal rate of 5% or less (almost no effect))
Green foxtail [20]
  G: green foxtail, herbicidal effect grade: 0 (Herbicidal rate of 5% or less (almost no effect))
Barnyard grass [21]
  H: barnyard grass, herbicidal effect grade: 3 (Herbicidal rate of 40% or more and less than 70%)
Wild oat [22]
  I: wild oat, herbicidal effect grade: 0 (Herbicidal rate of 5% or less (almost no effect))
Blackgrass [23]
  J: blackgrass, herbicidal effect grade: 4 (Herbicidal rate of 70% or more and less than 90%)
Italian ryegrass [24]
  K: Italian ryegrass, herbicidal effect grade: 1 (Herbicidal rate of 5% or more and less than 20%)
Windgrass [25]
  L: windgrass, herbicidal effect grade: 5 (Herbicidal rate of 90% or more (almost completely withered))
Velvetleaf [26]
  M: velvetleaf, herbicidal effect grade: 0 (Herbicidal rate of 5% or less (almost no effect))
Redroot pigweed [27]
  N: redroot pigweed, herbicidal effect grade: 1 (Herbicidal rate of 5% or more and less than 20%)
Lambsquarters [28]
  O: lambsquarters, herbicidal effect grade: 0 (Herbicidal rate of 5% or less (almost no effect))
Chickweed [29]
  P: chickweed, herbicidal effect grade: 5 (Herbicidal rate of 90% or more (almost completely withered))
Persian speedwell [30]
  R: persian speedwell, herbicidal effect grade: 4 (Herbicidal rate of 70% or more and less than 90%)
Corn [31]
  c: corn, effect on crop grade: 0 (Herbicidal rate of 5% or less (almost no effect))
Soybean [32]
  d: soybean, effect on crop grade: 0 (Herbicidal rate of 5% or less (almost no effect))
Wheat [33]
  e: wheat, effect on crop grade: 0 (Herbicidal rate of 5% or less (almost no effect))
Beet [34]
  f: beet, effect on crop grade: 4 (Herbicidal rate of 70% or more and less than 90%)
Rapeseed [35]
  g: rapeseed, effect on crop grade: 4 (Herbicidal rate of 70% or more and less than 90%)
other
  melting point: 286 to 288 °C
